Measurements reported in ChEMBL document CHEMBL1152655, “Novel acenaphtho[1,2-b]pyrrole-carboxylic acid family: synthesis, cytotoxicity, DNA-binding and cell cycle evaluation” (Bioorg Med Chem, 2009).
Activity calls are given as the source filed them. No cut-off for these calls is given here.

Experiments:
HeLa [1] = assay: Cytotoxicity against human HeLa cells after 48 hrs by MTT assay; type: functional, cell-based
HL-60 = assay: Cytotoxicity against human HL60 cells after 48 hrs by MTT assay; type: functional, cell-based; conditions: HL-60, 48 h
HCT-8 = assay: Cytotoxicity against human HCT8 cells after 48 hrs by MTT assay; type: functional, cell-based; conditions: HCT-8, 48 h
A-375 = assay: Cytotoxicity against human A375 cells after 48 hrs by MTT assay; type: functional, cell-based; conditions: A-375, 48 h
MCF7 = assay: Cytotoxicity against human MCF7 cells after 48 hrs by MTT assay; type: functional, cell-based; conditions: MCF7, 48 h
Calf thymus DNA [2] = assay: Binding affinity to calf thymus DNA; type: nucleic-acid assay; conditions: Bos taurus
HeLa [3] = assay: Cell cycle arrest in human HeLa cells by accumulation at G2 phase at 3.01 uM by flow cytometry (Rvb=12.86%); type: functional
HeLa [4] = assay: Cell cycle arrest in human HeLa cells by accumulation at S phase at 3.01 uM by flow cytometry (Rvb=28.20%); type: functional
HeLa [5] = assay: Cell cycle arrest in human HeLa cells assessed as apoptotic cells at 3.01 uM by flow cytometry relative to control; type: functional
HeLa [6] = assay: Cell cycle arrest in human HeLa cells by accumulation at G1 phase at 12.05 uM by flow cytometry (Rvb=58.94%); type: functional
HeLa [7] = assay: Cell cycle arrest in human HeLa cells by accumulation at G2 phase at 12.05 uM by flow cytometry (Rvb=12.86%); type: functional
HeLa [8] = assay: Cell cycle arrest in human HeLa cells by accumulation at S phase at 12.05 uM by flow cytometry (Rvb=28.20%); type: functional
HeLa [9] = assay: Cell cycle arrest in human HeLa cells assessed as apoptotic cells at 12.05 uM by flow cytometry relative to control; type: functional
HeLa [10] = assay: Cell cycle arrest in human HeLa cells by accumulation at G1 phase at 21.08 uM by flow cytometry (Rvb=58.94%); type: functional
HeLa [11] = assay: Cell cycle arrest in human HeLa cells by accumulation at G2 phase at 21.08 uM by flow cytometry (Rvb=12.86%); type: functional
HeLa [12] = assay: Cell cycle arrest in human HeLa cells by accumulation at S phase at 21.08 uM by flow cytometry (Rvb=28.20%); type: functional
HeLa [13] = assay: Cell cycle arrest in human HeLa cells assessed as apoptotic cells at 21.08 uM by flow cytometry relative to control; type: functional
HeLa [14] = assay: Cell cycle arrest in human HeLa cells by accumulation at G1 phase at 3.01 uM by flow cytometry (Rvb=58.94%); type: functional
Calf thymus DNA [15] = assay: Binding affinity to calf thymus DNA assessed as DNA intercalation at 30 uM by UV-Vis absorption studies; type: nucleic-acid assay; conditions: Bos taurus
Calf thymus DNA [16] = assay: Binding affinity to calf thymus DNA assessed as conformational change at 10 uM by CD spectra; type: nucleic-acid assay; conditions: Bos taurus
Calf thymus DNA [17] = assay: Binding affinity to calf thymus DNA assessed as increase in solution viscosity by viscometric titration; type: nucleic-acid assay; conditions: Bos taurus
HeLa [18] = assay: Cell cycle arrest in human HeLa cells by accumulation at S phase at 20.06 uM by flow cytometry (Rvb=28.20%); type: functional
HeLa [19] = assay: Cell cycle arrest in human HeLa cells assessed as apoptotic cells at 20.06 uM by flow cytometry relative to control; type: functional
HeLa [20] = assay: Cell cycle arrest in human HeLa cells by accumulation at G1 phase at 28.65 uM by flow cytometry (Rvb=58.94%); type: functional
HeLa [21] = assay: Cell cycle arrest in human HeLa cells by accumulation at G2 phase at 28.65 uM by flow cytometry (Rvb=12.86%); type: functional
HeLa [22] = assay: Cell cycle arrest in human HeLa cells by accumulation at S phase at 28.65 uM by flow cytometry (Rvb=28.20%); type: functional
HeLa [23] = assay: Cell cycle arrest in human HeLa cells assessed as apoptotic cells at 28.65 uM by flow cytometry relative to control; type: functional
HeLa [24] = assay: Cell cycle arrest in human HeLa cells by accumulation at G1 phase at 11.46 uM by flow cytometry (Rvb=58.94%); type: functional
HeLa [25] = assay: Cell cycle arrest in human HeLa cells by accumulation at G2 phase at 11.46 uM by flow cytometry (Rvb=12.86%); type: functional
HeLa [26] = assay: Cell cycle arrest in human HeLa cells by accumulation at S phase at 11.46 uM by flow cytometry (Rvb=28.20%); type: functional
HeLa [27] = assay: Cell cycle arrest in human HeLa cells assessed as apoptotic cells at 11.46 uM by flow cytometry relative to control; type: functional
HeLa [28] = assay: Cell cycle arrest in human HeLa cells by accumulation at G1 phase at 20.06 uM by flow cytometry (Rvb=58.94%); type: functional
HeLa [29] = assay: Cell cycle arrest in human HeLa cells by accumulation at G2 phase at 20.06 uM by flow cytometry (Rvb=12.86%); type: functional

Structure (SMILES) | K (Calf thymus DNA [2]) | IC50 (HeLa [1]) | IC50 (HL-60) | IC50 (HCT-8) | IC50 (A-375) | IC50 (MCF7) | other results
CN(C)CCNc1ccc2c3c(cccc13)C1=NC(=O)C(C(=O)O)=C12 | 5.96 ×10⁵ /M | 89.7 µM | 47.9 µM | > 100 µM | > 100 µM | 97 µM | –
O=C(O)C1=C2C(=NC1=O)c1cccc3c(NCc4cccs4)ccc2c13 | 6.75 ×10⁵ /M | 84.3 µM | 90 µM | > 100 µM | > 100 µM | > 100 µM | –
COC(=O)C1=C2C(=NC1=O)c1cccc3c(N4CCSCC4)ccc2c13 | – | 26.9 µM | > 100 µM | > 100 µM | > 100 µM | 68 µM | –
CCCCNc1ccc2c3c(cccc13)C1=NC(=O)C(C(=O)O)=C12 | 4.73 ×10⁵ /M | 30.3 µM | 24.1 µM | 48.1 µM | 50.1 µM | > 100 µM | –
CCN(CC)CCNc1ccc2c3c(cccc13)C1=NC(=O)C(C(=O)O)=C12 | 5.48 ×10⁵ /M | 10.4 µM | 19.8 µM | 38.1 µM | 71.8 µM | 16.5 µM | –
CN(C)CCCNc1ccc2c3c(cccc13)C1=NC(=O)C(C(=O)O)=C12 | 6.01 ×10⁵ /M | 29.3 µM | 13.1 µM | > 100 µM | > 100 µM | 70.5 µM | Activity (HeLa [18]): 45.43%; Activity (HeLa [19]): 11.13%; Activity (HeLa [20]): 34.1%; Activity (HeLa [21]): 17.49%; Activity (HeLa [22]): 48.41%; Activity (HeLa [23]): 13.89%; Activity (Calf thymus DNA [15]): Active; Activity (Calf thymus DNA [16]): Active; Activity (Calf thymus DNA [17]): Dose-dependent effect; Activity (HeLa [24]): 50.87%; Activity (HeLa [25]): 13.17%; Activity (HeLa [26]): 35.96%; Activity (HeLa [27]): 5.22%; Activity (HeLa [28]): 35.97%; Activity (HeLa [29]): 18.6%
N#CC1=C2C(=NC1=O)c1cccc3c(N4CCSCC4)ccc2c13 | – | 15.7 µM | 28.6 µM | 25.8 µM | 48.7 µM | 41.2 µM | –

Second part, led by results:

K (Calf thymus DNA [2]) | Structure (SMILES) | IC50 (HeLa [1]) | IC50 (HL-60) | IC50 (HCT-8) | IC50 (A-375) | IC50 (MCF7) | other results
2.69 ×10⁵ /M | O=C(O)C1=C2C(=NC1=O)c1cccc3c(N4CCSCC4)ccc2c13 | 48.9 µM | 76.9 µM | > 100 µM | > 100 µM | > 100 µM | –
2.91 ×10⁵ /M | O=C(O)C1=C2C(=NC1=O)c1cccc3c(N4CCCCC4)ccc2c13 | 20.6 µM | 20.5 µM | 24.4 µM | 18.4 µM | 14.5 µM | Activity (HeLa [3]): 3.75%; Activity (HeLa [4]): 31.63%; Activity (HeLa [5]): 4.34%; Activity (HeLa [6]): 60.02%; Activity (HeLa [7]): 9.46%; Activity (HeLa [8]): 30.52%; Activity (HeLa [9]): 4.81%; Activity (HeLa [10]): 53.67%; Activity (HeLa [11]): 12.75%; Activity (HeLa [12]): 33.58%; Activity (HeLa [13]): 11.95%; Activity (HeLa [14]): 64.63%; Activity (Calf thymus DNA [15]): Active; Activity (Calf thymus DNA [16]): Active; Activity (Calf thymus DNA [17]): Dose-dependent effect
2.34 ×10⁵ /M | O=C(O)C1=C2C(=NC1=O)c1cccc3c(N4CCOCC4)ccc2c13 | 36.2 µM | 42.2 µM | > 100 µM | 79.4 µM | 18 µM | –
6.13 ×10⁵ /M | CN1CCN(c2ccc3c4c(cccc24)C2=NC(=O)C(C(=O)O)=C23)CC1 | 17.2 µM | 51 µM | 72.1 µM | 28.5 µM | 14.9 µM | –
